The structures appear in SMILES notation. Like-named read-outs stand apart in the source and are kept apart here.

What is called IC50 is the point on the concentration scale where inhibition reaches its midpoint.

What all share (format): biochemical
The target of one assay is Pim1 kinase (Homo sapiens, UniProt P11309). Description: Pim1 ATP depletion assay.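 Also: Luciferase-luciferin luminescence readout of residual ATP after PIM1 transfers phosphate to a peptide substrate, 40 µM ATP added, reaction run to roughly half ATP consumption.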
Chain of Pim1 kinase (P11309 whole entry): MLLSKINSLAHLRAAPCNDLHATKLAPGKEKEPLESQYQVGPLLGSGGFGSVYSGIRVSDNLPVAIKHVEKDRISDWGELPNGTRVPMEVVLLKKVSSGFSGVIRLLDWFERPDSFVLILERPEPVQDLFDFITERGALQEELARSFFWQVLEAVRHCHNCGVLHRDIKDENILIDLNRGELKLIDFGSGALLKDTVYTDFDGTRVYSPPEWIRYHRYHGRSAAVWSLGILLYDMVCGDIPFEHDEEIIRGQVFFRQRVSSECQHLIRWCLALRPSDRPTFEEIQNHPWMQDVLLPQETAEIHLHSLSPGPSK
Another assay has as its target Pim2 kinase (Homo sapiens, UniProt Q9P1W9). Description: Pim2 ATP depletion assay.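 Also: Luciferase-based luminescent readout of ATP remaining after PIM2 phosphorylates a BAD peptide, final 5 nM enzyme, 4 µM ATP, 10 µM peptide, 2.5% DMSO, run to roughly half ATP consumption.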
The next assay has as its target Pim3 kinase (Homo sapiens, UniProt Q86V86). The assay can be described thus: Pim3 ATP depletion assay.
Assay [1] addresses T1, human full length PKCE enzyme (Homo sapiens, UniProt Q02156).
T1 construct: human full length PKCE enzyme purchased from InVitrogen; purchased InVitrogen
T1 sequence (Q02156 1-737): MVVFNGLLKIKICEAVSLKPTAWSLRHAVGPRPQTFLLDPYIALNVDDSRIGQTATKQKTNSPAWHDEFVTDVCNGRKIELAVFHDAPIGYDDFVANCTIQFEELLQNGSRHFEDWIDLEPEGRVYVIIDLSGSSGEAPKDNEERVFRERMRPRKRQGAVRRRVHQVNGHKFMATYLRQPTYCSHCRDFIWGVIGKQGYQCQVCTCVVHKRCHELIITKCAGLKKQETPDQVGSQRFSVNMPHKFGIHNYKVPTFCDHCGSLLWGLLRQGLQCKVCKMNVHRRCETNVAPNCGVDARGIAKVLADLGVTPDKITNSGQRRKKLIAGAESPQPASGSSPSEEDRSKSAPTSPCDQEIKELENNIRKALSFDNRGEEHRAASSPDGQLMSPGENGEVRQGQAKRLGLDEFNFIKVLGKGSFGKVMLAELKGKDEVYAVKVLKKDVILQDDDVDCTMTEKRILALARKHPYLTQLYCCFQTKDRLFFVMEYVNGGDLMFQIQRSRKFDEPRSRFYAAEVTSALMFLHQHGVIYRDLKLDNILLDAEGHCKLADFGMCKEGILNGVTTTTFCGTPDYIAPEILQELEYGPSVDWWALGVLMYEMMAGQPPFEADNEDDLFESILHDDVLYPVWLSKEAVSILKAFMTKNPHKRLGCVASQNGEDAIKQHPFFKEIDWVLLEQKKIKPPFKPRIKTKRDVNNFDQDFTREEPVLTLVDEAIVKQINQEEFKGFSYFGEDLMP
Description: In vitro PKCE assay. The note with it: 10 nM enzyme, 40 uM peptide substrate, 20 uM ATP, KinaseGlo Plus readout; read-out: PKCε IC50. A general note: Kinase-Glo measures the ATP left after a reaction by luminescence.

The mark [2] stands for this setting: Pim1 ATP depletion assay, read-out: IC50 (μM) PIM1.
The mark [3] stands for this setting: Pim1 ATP depletion assay, read-out: PIM1 IC50.

Chain of Pim2 kinase (Q9P1W9 whole entry): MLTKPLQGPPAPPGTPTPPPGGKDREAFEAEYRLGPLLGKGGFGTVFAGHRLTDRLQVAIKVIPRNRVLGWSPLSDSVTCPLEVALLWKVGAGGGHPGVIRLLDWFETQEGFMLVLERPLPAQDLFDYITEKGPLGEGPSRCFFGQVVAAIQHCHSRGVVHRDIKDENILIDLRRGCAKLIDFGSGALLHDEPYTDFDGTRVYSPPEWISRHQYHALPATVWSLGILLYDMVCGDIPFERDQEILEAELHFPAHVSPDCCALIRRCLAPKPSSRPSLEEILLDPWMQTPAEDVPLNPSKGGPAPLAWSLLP

Turning to `Nc1nccnc1C(=O)Nc1cncnc1N1CCCCC1` [Example 128, 3-amino-N-(4-piperidin-1-yl-pyrimidin-5-yl)pyrazine-2-carboxamide], the IC50 at Pim1 kinase (setting [2]) is 1 to 10 µM; at Pim2 kinase (read-out: IC50 (μM) PIM2), > 25 µM; at Pim3 kinase (read-out: IC50 (μM) PIM3) it was 10 to 25 µM; in assay [1], > 25000 nM.

Take `NC(=O)c1ccc(N2CCCCC2)c(NC(=O)c2nccnc2N)c1` [Example 129, 3-amino-N-(5-carbamoyl-2-piperidin-1-ylphenyl)pyrazine-2-carboxamide]: the IC50 in assay [1] lay within 1000 to 10000 nM.

As to `Nc1nccnc1C(=O)Nc1[nH]c(=O)ncc1-c1ccco1` [Example 136, 3-amino-N-[5-(2-furyl)-2-oxo-2,3-dihydropyrimidin-4-yl]-pyrazine-2-carboxamide], the IC50 is < 1 µM at Pim1 kinase (setting [2]), < 1 µM at Pim2 kinase (read-out: IC50 (μM) PIM2), < 1 µM on Pim3 kinase (read-out: IC50 (μM) PIM3) and 1000 to 10000 nM in assay [1].

For the compound `Nc1nccnc1C(=O)Nc1[nH]c(=O)ncc1-c1cccs1` [Example 137, 3-amino-N-[2-oxo-5-(2-thienyl)-2,3-dihydropyrimidin-4-yl]-pyrazine-2-carboxamide], the IC50 at Pim1 kinase (setting [2]) was < 1 µM; at Pim2 kinase (read-out: IC50 (μM) PIM2), < 1 µM; at Pim3 kinase (read-out: IC50 (μM) PIM3), < 1 µM; in assay [1], < 1000 nM.

Take `Nc1nccnc1C(=O)Nc1[nH]c(=O)ncc1-c1nccs1` [Example 138, 3-amino-N-[2-oxo-5-(1,3-thiazol-2-yl)-2,3-dihydro-pyrimidin-4-yl]pyrazine-2-carboxamide]: the IC50 on Pim1 kinase (setting [2]) was < 1 µM; on Pim2 kinase (read-out: IC50 (μM) PIM2) it was < 1 µM; on Pim3 kinase (read-out: IC50 (μM) PIM3) it was < 1 µM; in assay [1] it was > 25000 nM.

`Cn1cccc1-c1cnc(=O)[nH]c1NC(=O)c1nccnc1N` [Example 139, 3-amino-N-[5-(1-methyl-1H-pyrrol-2-yl)-2-oxo-2,3-dihydro-pyrimidin-4-yl]pyrazine-2-carboxamide]: the IC50 at Pim1 kinase (setting [2]) is < 1 µM; at Pim2 kinase (read-out: IC50 (μM) PIM2), < 1 µM; on Pim3 kinase (read-out: IC50 (μM) PIM3), < 1 µM; in assay [1], < 1000 nM.

With `Nc1nccnc1C(=O)Nc1[nH]c(=O)ncc1-c1ccccn1` [Example 140, 3-amino-N-(2-oxo-5-pyridin-2-yl-2,3-dihydropyrimidin-4-yl)-pyrazine-2-carboxamide], the IC50 at Pim1 kinase (setting [2]) is < 1 µM; on Pim2 kinase (read-out: IC50 (μM) PIM2), < 1 µM; on Pim3 kinase (read-out: IC50 (μM) PIM3), < 1 µM; in assay [1], 1000 to 10000 nM.

In the case of `Nc1ncc(Br)nc1C(=O)Nc1[nH]c(=O)ncc1-c1ccco1` [Example 141, 3-amino-6-bromo-N-[5-(2-furyl)-2-oxo-2,3-dihydro-pyrimidin-4-yl]pyrazine-2-carboxamide], the IC50 at Pim1 kinase (setting [2]) is < 1 µM; at Pim2 kinase (read-out: IC50 (μM) PIM2), < 1 µM; on Pim3 kinase (read-out: IC50 (μM) PIM3) it was < 1 µM; in assay [1], 1000 to 10000 nM.

Turning to `Cn1cccc1-c1cnc(=O)[nH]c1NC(=O)c1nc(Br)cnc1N` [Example 144, 3-amino-6-bromo-N-[5-(1-methyl-1H-pyrrol-2-yl)-2-oxo-2,3-dihydropyrimidin-4-yl]-pyrazine-2-carboxamide], in assay [1], the 50% inhibitory concentration (IC50) lay in the range of 1000 to 10000 nM.

Take `Nc1nccnc1C(=O)Nc1[nH]c(=O)ncc1N1CCC(F)CC1` [Example 149, 3-amino-N-[5-(4-fluoro-piperidin-1-yl)-2-oxo-2,3-dihydropyrimidin-4-yl]pyrazine-2-carboxamide]: the IC50 in assay [1] fell in the range of 1000 to 10000 nM.

Turning to `Nc1nccnc1C(=O)Nc1[nH]c(=O)ncc1N1CCC(C(F)(F)F)CC1` [Example 152, 3-amino-N-{2-oxo-5-[4-(trifluoromethyl)piperidin-1-yl]-2,3-dihydropyrimidin-4-yl}-pyrazine-2-carboxamide], the IC50 is < 1 µM at Pim1 kinase (setting [2]), < 1 µM on Pim2 kinase (read-out: IC50 (μM) PIM2), < 1 µM on Pim3 kinase (read-out: IC50 (μM) PIM3) and < 1000 nM in assay [1].

As to `Nc1ncc(Br)nc1C(=O)Nc1[nH]c(=O)ncc1N1CCC(C(F)(F)F)CC1` [Example 153, 3-amino-6-bromo-N-{2-oxo-5-[4-(trifluoromethyl)piperidin-1-yl]-2,3-dihydropyrimidin-4-yl}-pyrazine-2-carboxamide], the 50% inhibitory concentration (IC50) at Pim1 kinase (setting [2]) is < 1 µM; on Pim2 kinase (read-out: IC50 (μM) PIM2), < 1 µM; at Pim3 kinase (read-out: IC50 (μM) PIM3), < 1 µM; in assay [1], > 25000 nM.

`Nc1nccnc1C(=O)Nc1[nH]c(=O)ncc1N1CCCC(F)C1` (stereo not drawn) [Example 154, 3-amino-N-[5-(3-fluoro-piperidin-1-yl)-2-oxo-2,3-dihydropyrimidin-4-yl]pyrazine-2-carboxamide]: the IC50 was < 1 µM at Pim1 kinase (setting [2]), < 1 µM at Pim2 kinase (read-out: IC50 (μM) PIM2), < 1 µM on Pim3 kinase (read-out: IC50 (μM) PIM3) and < 1000 nM in assay [1].

Turning to `Nc1nccnc1C(=O)Nc1[nH]c(=O)ncc1N1CCC(F)(F)CC1` [Example 156, 3-amino-N-[5-(4,4-difluoro-piperidin-1-yl)-2-oxo-2,3-dihydropyrimidin-4-yl]pyrazine-2-carboxamide], the IC50 on Pim1 kinase (setting [2]) was < 1 µM; at Pim2 kinase (read-out: IC50 (μM) PIM2), < 1 µM; on Pim3 kinase (read-out: IC50 (μM) PIM3), < 1 µM; in assay [1], 1000 to 10000 nM.

Take `N#Cc1ccc(N2CCCCC2)c(NC(=O)c2nccnc2N)c1` [Example 171, 3-amino-N-(5-cyano-2-(piperidin-1-yl)phenyl)pyrazine-2-carboxamide]: the IC50 at Pim1 kinase (setting [2]) is < 1 µM; on Pim2 kinase (read-out: IC50 (μM) PIM2), 1 to 10 µM; on Pim3 kinase (read-out: IC50 (μM) PIM3), < 1 µM; in assay [1], 10000 to 25000 nM.

For `NCCC(=O)N1CCN(c2ccncc2NC(=O)c2nc(Br)cnc2N)CC1` [Example 178, 3-amino-N-{4-[4-(3-amino-propanoyl)piperazin-1-yl]-pyridin-3-yl}-6-bromopyrazine-2-carboxamide], the IC50 is < 1 µM at Pim1 kinase (setting [2]), < 1 µM at Pim2 kinase (read-out: IC50 (μM) PIM2), < 1 µM at Pim3 kinase (read-out: IC50 (μM) PIM3) and < 1000 nM in assay [1].

In the case of `NCC(=O)N1CCN(c2ccncc2NC(=O)c2nccnc2N)CC1` [Example 189, 3-amino-N-{4-[4-(amino-acetyl)piperazin-1-yl]pyridin-3-yl}pyrazine-2-carboxamide], the IC50 was < 1 µM against Pim1 kinase, 1 to 10 µM at Pim2 kinase (read-out: IC50 (μM) PIM2), < 1 µM on Pim3 kinase (read-out: IC50 (μM) PIM3) and < 1000 nM in assay [1].

For `Nc1nccnc1C(=O)Nc1cnccc1N1CCC(N)C1` (stereo not drawn) [Example 190, 3-amino-N-[4-(3-amino-pyrrolidin-1-yl)pyridin-3-yl]-pyrazine-2-carboxamide], in assay [1], the IC50 was > 25000 nM.

Regarding `Nc1nccnc1C(=O)Nc1cnccc1N1CCNCC1` [Example 191, 3-amino-N-(4-piperazin-1-yl-pyridin-3-yl)pyrazine-2-carboxamide], the IC50 against Pim1 kinase is < 1 µM; on Pim2 kinase (read-out: IC50 (μM) PIM2) it was > 25 µM; on Pim3 kinase (read-out: IC50 (μM) PIM3), 1 to 10 µM; in assay [1] it was < 1000 nM.

For the compound `NC[C@H]1CCCN1c1ccncc1NC(=O)c1nccnc1N` [Example 192, 3-amino-N-{4-[(2R)-2-(amino-methyl)pyrrolidin-1-yl]pyridin-3-yl}pyrazine-2-carboxamide], the IC50 is > 25 µM on Pim1 kinase (setting [2]), > 25 µM on Pim2 kinase (read-out: IC50 (μM) PIM2), > 25 µM on Pim3 kinase (read-out: IC50 (μM) PIM3) and > 25000 nM in assay [1].

As for `Nc1ncc(-c2ccncc2)nc1C(=O)Nc1cnccc1N1CCCC(N)C1` (stereo not drawn) [Example 354, 3-amino-6-pyridin-4-yl-pyrazine-2-carboxylic acid (3-amino-3,4,5,6-tetrahydro-2H-[1,4′]bipyridinyl-3′-yl)-amide], the IC50 in assay [1] is 1000 to 10000 nM.

Turning to `Nc1cc(F)c(-c2c(F)ccc(O)c2F)nc1C(=O)Nc1cnccc1N1CCC[C@H](N)C1` [Example 751, 3-Amino-N-(4-((S)-3-aminopiperidin-1-yl)pyridin-3-yl)-6-(2,6-difluoro-3-hydroxyphenyl)-5-fluoropicolinamide], the IC50 at Pim1 kinase (setting [3]), on Pim2 kinase (read-out: PIM2 IC50) and on Pim3 kinase (read-out: PIM3 IC50) was < 1 µM each time.

Regarding `Nc1ccc(-c2c(F)cccc2F)nc1C(=O)Nc1cnccc1N1CC[C@@H](O)[C@@H](N)C1` [Example 752, 3-Amino-6-(2,6-difluoro-phenyl)-pyridine-2-carboxylic acid (3-amino-4-hydroxy-3,4,5,6-tetra-hydro-2H-[1,4′]bipyridinyl-3′-yl)-amide], the IC50 on Pim1 kinase, on Pim2 kinase (read-out: PIM2 IC50) and on Pim3 kinase (read-out: PIM3 IC50) was < 1 µM each time.

Regarding `CC(C)CCc1ccc(F)c(-c2ccc(N)c(C(=O)Nc3cnccc3N3CCC[C@H](N)C3)n2)c1` [Example 755, (S)-3-amino-N-(4-(3-aminopiperidin-1-yl)pyridin-3-yl)-6-(2-fluoro-5-isopentylphenyl)picolinamide], the IC50 on Pim1 kinase (setting [3]), at Pim2 kinase (read-out: PIM2 IC50) and on Pim3 kinase (read-out: PIM3 IC50) was < 1 µM throughout.

Source of the values: US20140249135A1, “PIM KINASE INHIBITORS AND METHODS OF THEIR USE” (NOVARTIS AG, priority 2007, published 2014).
